The values below come from patent publication US7323461B2, “Use of methylene blue and related compounds to prevent or reverse an exaggerated hemodynamic reaction” (Montreal Heart Institute, priority 2002, dated 2008).

“Also recorded” adds a separate entry of the source.

The nature of data set [1]: Hemodynamic effects of methylene blue on hypotensive pigs (LCX artery occluded, sildenafil citrate plus nitroglycerin). The note with it: LCX balloon occlusion, 100 mg sildenafil citrate via esophagus tube, 0.2 mg nitroglycerin i.v. bolus along with MB bolus 3 mg/kg. Type of data set: in vivo, pig. On the procedure:
(§1) Pigs weighing between 20 and 25 kg were anesthetized in accordance with the standard procedure of the Canadian Council on Animal Care Regulations. After baseline hemodynamic measurements, the left circumflex (LCX) artery was occluded using a catheter balloon so as to mimic the condition of patients with cardiovascular disease. As soon as the animal was stable, a bolus injection of nitroglycerin (0.2 mg) was given intravenously in order to observe the effect of nitroglycerin alone on the animal. The animal's blood pressure was allowed to return to normal, and the animal was given 100 mg of sildenafil citrate via an esophagus tube. One hour after the administration of sildenafil citrate, a bolus injection of 0.2 mg of nitroglycerin was given to the animal in order to observe the combined effect of […] and nitroglycerin on the animal. When the animal's blood pressure returned to normal, a second 0.2 mg bolus injection of nitroglycerin was given along with a bolus of MB (3 mg/kg). Blood pressure and heart rate were monitored throughout the procedure.

The conditions of data set [2]: humans, dosages above 2 mg/kg; cited from earlier work.
Data set [3] is described as follows: Hemodynamic effects of methylene blue on hypotensive dogs (same procedure as for pigs). Type of data set: in vivo, dog. The conditions noted are these: same procedure as pigs: sildenafil citrate, nitroglycerin bolus. On the procedure: as §1
The procedure used was the same as that for pigs. (See EXAMPLE 1, above.) The experiments were conducted on dogs to see what effect the combination of a phosphodiesterase inhibitor and an organic nitrate would have on an animal with a greater number of collaterals than the pig. […]

In the case of `CN(C)c1ccc2nc3ccc(N(C)C)cc3[s+]c2c1.[Cl-]` [MB, 3,7-bis(dimethylamino)phenothiazin-5-ium chloride], the “changes in time in systolic blood pressure after nitroglycerin injection with MB” value was “Pressure recovery was much more rapid in the presence of MB; also recorded: beneficial effects of MB may be seen; also recorded: effectiveness of MB in increasing the blood pressure” in data set [1]; “A drop in blood pressure is less pronounced, and there is more rapid recovery time, than without MB; also recorded: MB effectively increased the blood pressure in the animals tested” in data set [3]. Further, the “respiratory problems at high dosage” value in data set [2] was “can lead to respiratory problems in humans”.
